Here are results for four molecules from patent US11059854B2, “Method for preparing steroid derivative FXR agonist” (Chia Tai Tianqing Pharmaceutical Group Co., Ltd., priority 2017, dated 2021).

Data set [1] is described as follows: Liver-blood ratio experiment of mice via cassette dosing. In kind it is in vivo, C57BL/6J male mice. To be noted: for Liver concentration 0.5 h / Liver/plasma concentration ratio 0.5 h / Plasma concentration 0.5 h / Liver concentration 3 h / Liver/plasma concentration ratio 3 h / Plasma concentration 3 h: oral cassette 2 mg/kg/compound. On the procedure:
Six C57BL/6J male mice were grouped as one oral group. The preparation contained 5 kinds of the developed drugs, and 2 mg/kg/compound was intragastrically administered (the solvent was 0.5% HPMC aqueous solution). The five compounds were firstly dissolved in the solvent, respectively, by ultrasonication or vortex, to form 1 mg/mL solutions (clear solution or suspension), and then the solutions of the five compound were mixed in equal volumes (1:1:1:1:1, v:v:v:v:v) in a glass bottle. After intragastrical oral administration, plasma and liver tissue samples were collected from 3 animals at 0.5 hours after administration; corresponding samples were collected from the other 3 animals at 3 hours after administration. After collection, the liver tissue was homogenized by using ice-cold homogenization buffer (methanol: 15 mM PBS buffer (pH 7.4)=1:2, v:v) according to liver weight: homogenization buffer volume=1:3. Plasma and liver tissue samples were analyzed by using a five-in-one LC-MS/MS analysis method developed in advance. Plasma concentrations and liver tissue homogenate concentrations were obtained, and the concentration ratio of liver tissue to plasma was calculated by using Excel.

Data set [2] addresses T1, glutathione-S-transferase-labeled FXR human protein (Homo sapiens, UniProt Q96RI1).
T1 construct: purchased Invitrogen
T1 sequence (Q96RI1 1-486): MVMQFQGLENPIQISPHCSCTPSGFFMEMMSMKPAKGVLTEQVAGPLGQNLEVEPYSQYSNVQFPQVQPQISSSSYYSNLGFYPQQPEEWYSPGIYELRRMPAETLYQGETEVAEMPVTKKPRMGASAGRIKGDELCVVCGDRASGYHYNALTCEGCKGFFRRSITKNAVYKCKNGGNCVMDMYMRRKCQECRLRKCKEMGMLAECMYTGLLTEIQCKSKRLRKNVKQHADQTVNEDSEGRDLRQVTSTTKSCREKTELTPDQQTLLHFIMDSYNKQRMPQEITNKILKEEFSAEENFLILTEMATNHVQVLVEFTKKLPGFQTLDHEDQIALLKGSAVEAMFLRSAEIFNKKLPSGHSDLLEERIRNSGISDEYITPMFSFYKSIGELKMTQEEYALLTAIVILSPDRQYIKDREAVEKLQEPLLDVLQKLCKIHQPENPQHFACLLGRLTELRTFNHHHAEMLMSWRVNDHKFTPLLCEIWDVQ
The data set can be described thus: FXR biochemical experiment (alphascreen, coactivator recruitment). Particulars: for FXR enzymatic activity Efficacy: highest signal relative to highest signal of the reference compound; for EC50: alphascreen, GST-FXR human protein with biotin-labeled steroid receptor coactivator, read-out: FXR enzymatic activity EC50.
Procedure: FXR Biochemical Experiment
The activation of compounds on FXR binding reaction was examined by a homogeneous proximity luminescenceamplification test (alphascreen).
Protein: glutathione-S-transferase-labeled FXR human protein (Invitrogen)
Co-activator: Biotin-labeled steroid receptor coactivator (Anaspec)
Detection reagent: homogeneous proximity luminescence amplification test (alphascreen) Detection Kit (PerkinElmer)
Compound dilution: the test compound was prepared as a 40 μM DMSO solution, and then diluted 3-fold to 10 concentration points. The reference compound was prepared as a 400 μM DMSO solution, followed by diluted 1.5-fold to 10 concentration points. The diluted DMSO solution was added to the wells of a 384-well plate in a volume of 150 nL per well.
Glutathione-S-transferase-labeled FXR human protein and biotin-labeled steroid receptor coactivator were formulated as mixed solutions with concentrations of 0.4 nM and 30 nM, respectively, which was added to the wells of the 384-well plate in a volume of 15 per well, and the plate was incubated for 1 hour at room temperature.
The experiment process was carried out with protecting from light. The incubation was performed for 1 hour at room temperature.
The experiment process was carried out by protecting from light. The incubation was performed for 1 hour at room temperature.

The target in data set [3] is T2, FXR (FXR HEK 293T DA cell line) (Homo sapiens, UniProt Q96RI1).
T2 construct: The UAS-driven beta-lactamase is the reporter
T2 sequence (Q96RI1 262-486 limits assumed): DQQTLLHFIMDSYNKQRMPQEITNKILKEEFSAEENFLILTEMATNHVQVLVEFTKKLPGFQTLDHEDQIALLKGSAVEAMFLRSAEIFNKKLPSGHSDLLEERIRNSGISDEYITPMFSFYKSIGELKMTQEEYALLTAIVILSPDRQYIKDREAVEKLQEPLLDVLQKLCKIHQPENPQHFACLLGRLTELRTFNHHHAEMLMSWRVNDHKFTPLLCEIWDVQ
The data set is described as follows: FXR cell experiment (β-lactamase reporter gene). In kind it is cell-based. As to the method: 2. Cell culture medium: DMEM medium supplemented with 10% serum and Penicillin/Streptomycin (1×).
3. Detection reagent: GeneBLAzer® Reporter Gene Detection Kit (Invitrogen)
1. Compound dilution: the test compound was prepared as a 100 μM DMSO solution, and then the compound was diluted 3-fold to 10 concentration points. The reference compound was prepared as a 100 μM DMSO solution, and then diluted 1.3-fold to 10 concentration points. The diluted DMSO solution was added to the wells of a 384-well plate in a volume of 200 nL per well.
3. The 384-well microplate was incubated at 37° C., 5% CO2 for 16 hours.
4. 6 μL of 1 mM LiveBLAzer™-FRET B/G (CCF4-AM) substrate was mixed with 60 μL of B solution and 934 μL of C solution, which was added to the wells of a 384-well plate in a volume of 8 μL per well.
5. The 384-well microplate was incubated in dark for 2 hours at room temperature.
7. Analytical data: the data were analyzed by using Prism 5.0 to calculate the EC50 value of the activation of the compound.

Data set [4] can be described thus: Pharmacokinetics in mice administrated with single compound. It is filed as in vivo, C57BL/6J male mice. Particulars: for drug exposure compared with obeticholic acid / peak concentration compared with obeticholic acid: oral, same dosage (10 mg/kg), in words. On the procedure: Twelve C57BL/6J male mice were randomly divided into two groups, 6 mice in each group. […] Plasma (using K2-EDTA as anticoagulant) samples were taken at 0.083, 0.25, 0.5, 1, 2, 4, 6, 8 and 24 hours after administration for the intravenous group; and plasma samples were taken at 0.25, 0.5, 1, 2, 4, 6, 8 and 24 hours after administration for the oral group. For 6 animals in each group, blood samples were collected for 3 animals at one time point, and the first batch of 3 animals was alternately sampled with the second batch of 3 animals. Plasma sample analysis was performed by using LC-MS/MS. The obtained plasma concentrations were plotted against time, and PK parameters were calculated by using Phoenix WinNonlin 6.3.

[5] abbreviates: male, C57BL/6J, mouse, plasma, oral (intragastric) 10 mg/kg, 0.5% HPMC.
[6] abbreviates: oral, same dosage (2 mg/kg), 0.5 hours and 3 hours, in words.

Regarding `CC[C@H]1[C@@H](O)[C@@H]2[C@H](CC[C@]3(C)[C@@H]([C@H](C)CCC(=O)O)CC[C@@H]23)[C@@]2(C)CC[C@@H](O)C[C@@H]12` [Obeticholic acid, obeticholic acid, reference compound], in data set [1], the “Liver concentration 0.5 h” value is reported as 711 nM, the “Liver/plasma concentration ratio 0.5 h” value is reported as 5, the “Plasma concentration 0.5 h” value was determined as 151 nM and the “Liver concentration 3 h” value is 625 nM. Besides, in data set [1], the “Liver/plasma concentration ratio 3 h” value amounted to 10 and the “Plasma concentration 3 h” value is 63 nM.

Turning to `CC[C@H]1[C@@H](O)[C@@H]2[C@H](CC[C@]3(C)[C@@H]([C@H](C)CCOc4ncc(C(=O)O)cc4Cl)CC[C@@H]23)[C@@]2(C)CC[C@@H](O)C[C@@H]12` [The compound of formula I-Cl], the “FXR enzymatic activity Efficacy” value in data set [2] is given as 248%. In addition, the EC50 (commonly the concentration that produces a half-maximal response) in data set [3] (FXR HEK 293T DA cells, β-lactamase reporter, 16 hours, read-out: FXR cell viability EC50) turned out to be 3 nM. Moreover, the “FXR cell viability Efficacy” value in data set [3] (highest signal relative to reference compound CDCA) stood at 150%. For the same molecule, in data set [4], the “drug exposure compared with obeticholic acid” value is recorded as “higher than that of the control compound obeticholic acid” and the “peak concentration compared with obeticholic acid” value was “higher than that of the control compound obeticholic acid”.

Take `CC[C@H]1[C@@H](O)[C@@H]2[C@H](CC[C@]3(C)[C@@H]([C@H](C)CCOc4ncc(C(=O)O)cc4F)CC[C@@H]23)[C@@]2(C)CC[C@@H](O)C[C@@H]12` [The compound of formula I-F]: in data set [2], the 50% effective concentration (EC50) was 2.5 nM and the “FXR enzymatic activity Efficacy” value worked out at 138%.

Take `CC[C@H]1[C@@H](O)[C@@H]2[C@H](CC[C@]3(C)[C@@H]([C@H](C)CCOc4ccc(C(=O)O)cn4)CC[C@@H]23)[C@@]2(C)CC[C@@H](O)C[C@@H]12` [The compound of formula I-H]: in data set [2], the EC50 came out at 6 nM and the “FXR enzymatic activity Efficacy” value is on record as 249%. In data set [4] (setting [5]), the AUC – broadly, concentration integrated over time – was found to be 2.34 µM·h; the Cmax – broadly, the highest concentration seen after dosing – was found to be 936 nM; the Tmax (usually the time at which the peak concentration occurs) is 30 min. Further, in data set [4], the “drug exposure compared with obeticholic acid” value was “higher than that of the control compound obeticholic acid” and the “peak concentration compared with obeticholic acid” value is given as “close to that of the control compound obeticholic acid”. In data set [1], the “Liver concentration 0.5 h” value is recorded as 1959 nM, the “Liver/plasma concentration ratio 0.5 h” value came out at 24, the “Plasma concentration 0.5 h” value came to 83 nM and the “Liver concentration 3 h” value is on record as 701 nM. Also, in data set [1], the “Liver/plasma concentration ratio 3 h” value turned out to be 16 and the “Plasma concentration 3 h” value turned out to be 45 nM. In addition, in data set [1] (setting [6]), the “drug concentrations in the liver compared with control compound” value is “higher than those of the control compound” and the “liver/plasma concentration ratios compared with control compound” value is listed as “higher than those of the control compound”.
